Measured values taken from PMC4619619, “Diversity of Active States in TMT Opsins” (PLoS ONE, 2015).

Legend:
[1] = target: T1, medaka TMT1A opsin (C-terminally truncated) (Oryzias latipes, UniProt R9R6D2); assay: UV-visible spectroscopy; HPLC of chromophore; assay type: binding; details: covalent (Schiff base); formed in situ by orange light (>540 nm) from the all-trans state; 0 °C
T1 construct: gene tmtops1a; C-terminal 63 residues deleted; C-terminal rho1D4 tag (ETSQVAPA) kept; HEK293T, pMT4; purified in dodecyl maltoside, also membranes; cDNA cloned from medaka brain
T1 sequence (R9R6D2 1-342): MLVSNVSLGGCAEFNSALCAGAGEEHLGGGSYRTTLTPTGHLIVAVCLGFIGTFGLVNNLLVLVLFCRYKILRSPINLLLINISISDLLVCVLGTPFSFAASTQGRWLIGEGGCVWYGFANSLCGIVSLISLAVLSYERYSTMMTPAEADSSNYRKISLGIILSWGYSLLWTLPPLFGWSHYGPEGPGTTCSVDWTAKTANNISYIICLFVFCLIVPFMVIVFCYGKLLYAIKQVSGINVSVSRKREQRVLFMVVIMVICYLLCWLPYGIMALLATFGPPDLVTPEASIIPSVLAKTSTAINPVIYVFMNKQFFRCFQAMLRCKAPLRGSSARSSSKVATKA

[2] = target: T1, medaka TMT1A opsin (C-terminally truncated); assay: UV-visible spectroscopy; HPLC of chromophore; GTPγS exchange with Gi and Go; assay type: biochemical; details: covalent (protonated Schiff base); agonist; formed in situ by blue light (460 nm); 0 °C
medaka TMT2 opsin [3] = target: T2, medaka TMT2 opsin (Oryzias latipes, UniProt R9R6C6); assay: UV-visible spectroscopy; acid denaturation; HPLC; GTPγS exchange with Gi and Go; assay type: biochemical; details: covalent (unprotonated Schiff base); agonist; formed in situ by blue light (460 nm); 0 °C
T2 construct: gene tmtops2; full length; C-terminal rho1D4 tag (ETSQVAPA) kept; HEK293T, pMT4; partially purified in dodecyl maltoside, also membranes; cDNA cloned from medaka brain
T2 sequence (R9R6C6 1-355): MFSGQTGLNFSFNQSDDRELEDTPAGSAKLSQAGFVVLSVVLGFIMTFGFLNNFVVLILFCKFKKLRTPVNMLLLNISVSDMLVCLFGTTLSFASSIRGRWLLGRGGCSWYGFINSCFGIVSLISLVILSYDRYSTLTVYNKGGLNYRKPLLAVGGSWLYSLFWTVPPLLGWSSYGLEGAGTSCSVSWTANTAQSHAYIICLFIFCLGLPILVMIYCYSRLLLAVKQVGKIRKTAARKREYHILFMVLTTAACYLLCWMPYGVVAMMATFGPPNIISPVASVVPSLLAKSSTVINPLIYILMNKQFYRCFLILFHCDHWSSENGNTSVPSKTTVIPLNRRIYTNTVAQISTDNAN

medaka TMT2 opsin [4] = target: T2, medaka TMT2 opsin; assay: UV-visible spectroscopy; HPLC of chromophore; assay type: binding; details: covalent (Schiff base); reconstituted pigment in the dark; 0 °C, pH 6.5, 0.02% dodecyl maltoside
full-length TMT1A opsin = target: T3, full-length TMT1A opsin (Oryzias latipes, UniProt R9R6D2); assay: UV-visible spectroscopy; assay type: binding; details: covalent (Schiff base); reconstituted pigment
T3 construct: gene tmtops1a; full length; C-terminal rho1D4 tag (ETSQVAPA) kept; HEK293T, pMT4; purified
T3 sequence (R9R6D2 1-405): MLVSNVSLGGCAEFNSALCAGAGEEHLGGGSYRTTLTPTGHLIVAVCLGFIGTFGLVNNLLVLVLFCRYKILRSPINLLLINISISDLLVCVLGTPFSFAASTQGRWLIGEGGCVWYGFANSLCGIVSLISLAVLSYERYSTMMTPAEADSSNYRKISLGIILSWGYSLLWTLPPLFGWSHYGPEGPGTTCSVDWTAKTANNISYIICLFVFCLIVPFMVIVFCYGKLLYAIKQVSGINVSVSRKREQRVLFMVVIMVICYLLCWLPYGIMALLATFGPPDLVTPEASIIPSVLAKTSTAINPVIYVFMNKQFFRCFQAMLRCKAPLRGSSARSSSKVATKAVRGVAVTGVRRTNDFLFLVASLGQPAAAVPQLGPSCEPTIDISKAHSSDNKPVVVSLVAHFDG

[5] = target: T4, medaka TMT1A opsin (C-terminally truncated) (Oryzias latipes, UniProt R9R6D2, T190S); assay: UV-visible spectroscopy before and after irradiation; assay type: binding; details: covalent (Schiff base); 0 °C; bovine rhodopsin numbering; truncation of mutant not stated
T4 construct: gene tmtops1a; C-terminal 63 residues deleted; C-terminal rho1D4 tag (ETSQVAPA) kept; HEK293T, pMT4; purified in dodecyl maltoside, also membranes; cDNA cloned from medaka brain
T4 sequence (R9R6D2 entry or part of it T190S): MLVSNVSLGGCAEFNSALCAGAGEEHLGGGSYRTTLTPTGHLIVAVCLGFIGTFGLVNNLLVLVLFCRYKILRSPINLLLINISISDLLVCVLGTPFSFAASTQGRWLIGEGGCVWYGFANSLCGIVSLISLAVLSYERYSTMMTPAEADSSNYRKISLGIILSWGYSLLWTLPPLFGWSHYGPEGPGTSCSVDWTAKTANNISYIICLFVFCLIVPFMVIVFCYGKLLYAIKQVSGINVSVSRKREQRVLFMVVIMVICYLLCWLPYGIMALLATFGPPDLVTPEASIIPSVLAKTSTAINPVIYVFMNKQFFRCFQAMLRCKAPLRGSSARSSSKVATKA

CC1=C(\C=C/C(C)=C/C=C/C(C)=C/C=O)C(C)(C)CCC1 [7-cis-retinal]
UV-visible spectroscopy; HPLC of chromophore [1]: showed the formation of products having 9-cis and 7-cis forms (Fig 2E)

CC1=C(/C=C/C(C)=C/C=C/C(C)=C/C=O)C(C)(C)CCC1 [all-trans-retinal]
UV-visible spectroscopy; HPLC of chromophore; GTPγS exchange with Gi and Go [2]: indicating that the all-trans product is a G protein-activating state
UV-visible spectroscopy; acid denaturation; HPLC; GTPγS exchange with Gi and Go (medaka TMT2 opsin [3]): indicating that the all-trans product was the G protein-activating state of TMT2 opsin

CC1=C(/C=C/C(C)=C\C=C\C(C)=C\C=O)C(C)(C)CCC1 [9-cis-retinal]
UV-visible spectroscopy; HPLC of chromophore [1]: showed the formation of products having 9-cis and 7-cis forms (Fig 2E)

CC1=C(/C=C/C(C)=C/C=C\C(C)=C\C=O)C(C)(C)CCC1 [11-cis-retinal]
UV-visible spectroscopy; HPLC of chromophore (medaka TMT2 opsin [4]): partially purified pigment of TMT2 opsin after reconstitution with 11-cis-retinal
UV-visible spectroscopy (full-length TMT1A opsin): Full-length pigment was formed after reconstitution with 11-cis-retinal
UV-visible spectroscopy before and after irradiation [5]: We then constructed a single mutant (T186S) of TMT1A opsin
